Measurements as given in patent US7655447B2, “ZSIG33-like polynucleotides” (ZymoGenetics, Inc., priority 2000, dated 2010).

Tested on: antral portion of the stomach
Test: Gastric contractility: distance between transducing crystals on the antral stomach
Format: in vivo, Sprague-Dawley rats
Details: urethane-anesthetized rats
Text: Two male Sprague-Dawley rats, approximately 12 weeks old (Harlan, Indianapolis, Ind.) are anesthetized with urethane and their stomachs are exposed through a small abdominal incision. Two 2.4 mm transducing crystals (Sonometrics, Ontario, Canada) are placed on the antral portion of the stomach such that circular contractions could be monitored as a change in the distance between the two crystals. The crystals are attached with VETBOND TISSUE ADHESIVE (3M, St. Paul, Minn.). […] The amplitude of the NE-induced decrease is approximately 50% of the acetylcholine-induced increase in distance. Both responses are transient. A negative control of 10 μl of phosphate buffer solution (PBS) applied topically between the crystals has no effect. […] The ZS33LP at 1 μg induces a sustained, rhythmic increase and decrease in crystal distance.

**Q.** `NC[C@H](O)c1ccc(O)c(O)c1` [norepinephrine] was tested. Which “change in the distance between the two crystals (circular contractions)” value (10 μl of 1 μM applied topically to the stomach between the crystals) did it give?
**A.** reduction in the distance between the two crystals

**Q.** What about the “amplitude of the NE-induced decrease relative to the acetylcholine-induced increase in distance” value (10 μl of 1 μM applied topically) of the same compound?
**A.** approximately 50%
